Reference: article PMC3615554 (Journal of biomolecular screening, 2012)
Like-named read-outs stand apart in the source and are kept apart here.

Legend:
[1] = system: EGFR activation (granule formation) in A549-EGFRB cells; test: EGFRB assay, granule count readout; assay type: cell-based; settings: for IC50 / EC50: read-out: IC50 or EC50 (nM) Granule count; for inhibition at 10 µM: read-out: HTS % inhibition at 10 μM Granule count
[2] = system: A549-EGFRB cells; test: EGFRB assay, nuclei count readout; assay type: cell-based; settings: for HTS % inhibition at 10 μM Nuclei count: pilot screen, 10 μM compound, average of duplicates; for inhibition at 10 µM: read-out: HTS % inhibition at 10 μM Nuclei count
[3] = molecular target: recombinant EGFR kinase; settings: read-out: Reported IC50 toward recombinant EGFR kinase; cited from earlier work
[4] = molecular target: ABL kinase (Homo sapiens, UniProt P00519); test: Luminescence ADP production kinase assay, ABL; assay type: biochemical; settings: for Luminescence ADP kinase assay IC50 ABL: 50 nM enzyme, 200 μM ATP, * = partial inhibition
[5] = molecular target: SRC kinase (Homo sapiens, UniProt P12931); test: Luminescence ADP production kinase assay, SRC; assay type: biochemical; settings: for Luminescence ADP kinase assay IC50 SRC: 50 nM enzyme, 200 μM ATP, * = partial inhibition
[6] = molecular target: EGFR kinase (Homo sapiens, UniProt P00533); test: Luminescence ADP production kinase assay, EGFR; assay type: biochemical; settings: for Luminescence ADP kinase assay IC50 EGFR: 50 nM enzyme, 200 μM ATP, low limit 10 nM, * = partial inhibition
[7] = molecular target: VEGFR1 kinase (Homo sapiens, UniProt P17948); test: Luminescence ADP production kinase assay, VEGFR1; settings: for Luminescence ADP kinase assay IC50 VEGFR1: 50 nM enzyme, 200 μM ATP, * = partial inhibition
[8] = system: H3255 cells (L858R EGFR mutation); test: Alamar Blue viability assay, H3255; assay type: cell-based, human; settings: for IC50: Homo sapiens, NCI-H3255, 120 h, read-out: Alamar Blue viability assay IC50 H3255; for Alamar Blue viability assay IC50 H3255: 120 hours incubation, * = partial inhibition
[9] = system: HCC4011 cells (L858R EGFR mutation); test: Alamar Blue viability assay, HCC4011; assay type: cell-based, human; settings: for IC50: Homo sapiens, HCC4011, 120 h, read-out: Alamar Blue viability assay IC50 HCC4011; for Alamar Blue viability assay IC50 HCC4011: 120 hours incubation, * = partial inhibition
[10] = system: A549 cells (wild type EGFR); test: Alamar Blue viability assay, A549; assay type: cell-based; settings: for IC50: Homo sapiens, A549, 120 h, read-out: Alamar Blue viability assay IC50 A549; for Alamar Blue viability assay IC50 A549: 120 hours incubation, * = partial inhibition
[11] = system: H2030 cells (wild type EGFR); test: Alamar Blue viability assay, H2030; assay type: cell-based; settings: for IC50: Homo sapiens, NCI-H2030, 120 h, read-out: Alamar Blue viability assay IC50 H2030; for Alamar Blue viability assay IC50 H2030: 120 hours incubation, * = partial inhibition
[12] = inhibitors, dose response up to 10 μM, ±standard deviation, N.E. = no effect
[13] = inhibitors, dose response up to 10 μM, N.E. = no effect, * = partial inhibition
[14] = activators, dose response up to 10 μM, N.E. = no effect

SRC kinase, sequence (P12931 whole entry): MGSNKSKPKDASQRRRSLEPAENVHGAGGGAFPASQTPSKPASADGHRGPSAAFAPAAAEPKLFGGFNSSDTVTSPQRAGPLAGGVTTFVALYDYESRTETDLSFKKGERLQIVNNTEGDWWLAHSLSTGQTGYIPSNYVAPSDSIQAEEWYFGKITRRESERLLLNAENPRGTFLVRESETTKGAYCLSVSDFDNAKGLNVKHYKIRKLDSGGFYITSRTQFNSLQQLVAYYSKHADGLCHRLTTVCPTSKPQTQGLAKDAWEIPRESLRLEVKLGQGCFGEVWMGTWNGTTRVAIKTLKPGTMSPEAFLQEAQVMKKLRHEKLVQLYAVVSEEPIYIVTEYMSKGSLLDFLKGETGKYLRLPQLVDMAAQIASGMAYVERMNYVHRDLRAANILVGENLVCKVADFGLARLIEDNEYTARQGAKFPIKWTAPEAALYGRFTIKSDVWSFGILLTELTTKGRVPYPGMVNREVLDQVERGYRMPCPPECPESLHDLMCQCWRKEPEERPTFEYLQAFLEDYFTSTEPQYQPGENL
ABL kinase, sequence (P00519 whole entry): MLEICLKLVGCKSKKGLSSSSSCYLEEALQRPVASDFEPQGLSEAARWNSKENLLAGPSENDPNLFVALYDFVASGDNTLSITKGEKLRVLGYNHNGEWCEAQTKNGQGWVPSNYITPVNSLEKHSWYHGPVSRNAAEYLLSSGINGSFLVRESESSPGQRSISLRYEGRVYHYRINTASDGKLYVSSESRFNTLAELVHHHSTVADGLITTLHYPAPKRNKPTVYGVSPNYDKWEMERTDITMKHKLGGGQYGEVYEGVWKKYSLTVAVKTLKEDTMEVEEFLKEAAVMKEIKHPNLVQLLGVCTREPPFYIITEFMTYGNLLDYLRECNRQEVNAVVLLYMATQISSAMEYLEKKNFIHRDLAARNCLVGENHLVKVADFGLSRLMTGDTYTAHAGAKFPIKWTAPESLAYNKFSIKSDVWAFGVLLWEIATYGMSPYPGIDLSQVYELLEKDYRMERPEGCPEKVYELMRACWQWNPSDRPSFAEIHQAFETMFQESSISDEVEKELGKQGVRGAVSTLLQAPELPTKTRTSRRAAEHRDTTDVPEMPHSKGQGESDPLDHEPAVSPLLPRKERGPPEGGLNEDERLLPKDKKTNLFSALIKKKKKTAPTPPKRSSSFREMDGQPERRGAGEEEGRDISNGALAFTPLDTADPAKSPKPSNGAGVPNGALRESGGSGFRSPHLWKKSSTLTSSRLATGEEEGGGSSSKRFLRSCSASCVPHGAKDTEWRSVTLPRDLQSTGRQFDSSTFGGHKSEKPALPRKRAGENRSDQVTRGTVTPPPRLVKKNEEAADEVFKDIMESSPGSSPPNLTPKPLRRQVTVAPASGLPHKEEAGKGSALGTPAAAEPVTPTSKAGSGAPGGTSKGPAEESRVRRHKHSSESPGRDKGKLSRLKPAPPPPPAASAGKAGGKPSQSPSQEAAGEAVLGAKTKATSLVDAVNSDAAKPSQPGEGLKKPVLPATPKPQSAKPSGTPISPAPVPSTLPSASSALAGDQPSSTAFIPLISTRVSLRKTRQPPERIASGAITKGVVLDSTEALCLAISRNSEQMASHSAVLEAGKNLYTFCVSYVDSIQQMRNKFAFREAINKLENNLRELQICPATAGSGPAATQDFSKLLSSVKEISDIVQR
VEGFR1 kinase, sequence (P17948 27-1338): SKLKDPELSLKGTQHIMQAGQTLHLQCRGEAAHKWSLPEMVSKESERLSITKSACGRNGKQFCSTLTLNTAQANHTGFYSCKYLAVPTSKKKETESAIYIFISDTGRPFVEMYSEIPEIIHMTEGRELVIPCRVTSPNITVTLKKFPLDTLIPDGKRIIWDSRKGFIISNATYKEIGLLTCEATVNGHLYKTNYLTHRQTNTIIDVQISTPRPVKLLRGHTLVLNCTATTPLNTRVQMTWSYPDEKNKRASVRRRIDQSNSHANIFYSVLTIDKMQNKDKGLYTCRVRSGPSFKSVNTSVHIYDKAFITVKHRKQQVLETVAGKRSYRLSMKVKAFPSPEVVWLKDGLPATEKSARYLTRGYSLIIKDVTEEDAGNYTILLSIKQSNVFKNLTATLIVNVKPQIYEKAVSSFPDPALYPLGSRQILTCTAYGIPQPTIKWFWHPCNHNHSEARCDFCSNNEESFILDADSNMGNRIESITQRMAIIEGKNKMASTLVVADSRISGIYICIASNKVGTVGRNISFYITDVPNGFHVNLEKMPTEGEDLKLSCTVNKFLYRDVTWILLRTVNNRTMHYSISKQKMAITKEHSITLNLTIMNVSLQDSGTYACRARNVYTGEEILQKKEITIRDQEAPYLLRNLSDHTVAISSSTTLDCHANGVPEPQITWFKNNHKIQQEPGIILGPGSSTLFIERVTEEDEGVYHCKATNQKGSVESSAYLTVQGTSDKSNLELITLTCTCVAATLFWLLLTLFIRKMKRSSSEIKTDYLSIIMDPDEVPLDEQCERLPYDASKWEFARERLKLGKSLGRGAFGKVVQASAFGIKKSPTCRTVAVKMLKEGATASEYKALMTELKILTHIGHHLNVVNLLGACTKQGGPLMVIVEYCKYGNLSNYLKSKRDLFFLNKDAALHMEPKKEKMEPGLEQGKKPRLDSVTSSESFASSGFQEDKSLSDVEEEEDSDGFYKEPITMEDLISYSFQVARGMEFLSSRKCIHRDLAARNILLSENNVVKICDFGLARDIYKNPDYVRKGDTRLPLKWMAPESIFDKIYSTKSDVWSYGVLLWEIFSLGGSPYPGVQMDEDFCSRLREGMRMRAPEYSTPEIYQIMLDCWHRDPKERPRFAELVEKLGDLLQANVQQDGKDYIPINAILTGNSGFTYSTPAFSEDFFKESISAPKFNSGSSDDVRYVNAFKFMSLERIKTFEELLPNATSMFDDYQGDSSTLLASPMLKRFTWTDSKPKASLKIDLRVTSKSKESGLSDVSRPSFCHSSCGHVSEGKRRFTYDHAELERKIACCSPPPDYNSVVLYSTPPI
EGFR kinase, sequence (P00533 25-1210): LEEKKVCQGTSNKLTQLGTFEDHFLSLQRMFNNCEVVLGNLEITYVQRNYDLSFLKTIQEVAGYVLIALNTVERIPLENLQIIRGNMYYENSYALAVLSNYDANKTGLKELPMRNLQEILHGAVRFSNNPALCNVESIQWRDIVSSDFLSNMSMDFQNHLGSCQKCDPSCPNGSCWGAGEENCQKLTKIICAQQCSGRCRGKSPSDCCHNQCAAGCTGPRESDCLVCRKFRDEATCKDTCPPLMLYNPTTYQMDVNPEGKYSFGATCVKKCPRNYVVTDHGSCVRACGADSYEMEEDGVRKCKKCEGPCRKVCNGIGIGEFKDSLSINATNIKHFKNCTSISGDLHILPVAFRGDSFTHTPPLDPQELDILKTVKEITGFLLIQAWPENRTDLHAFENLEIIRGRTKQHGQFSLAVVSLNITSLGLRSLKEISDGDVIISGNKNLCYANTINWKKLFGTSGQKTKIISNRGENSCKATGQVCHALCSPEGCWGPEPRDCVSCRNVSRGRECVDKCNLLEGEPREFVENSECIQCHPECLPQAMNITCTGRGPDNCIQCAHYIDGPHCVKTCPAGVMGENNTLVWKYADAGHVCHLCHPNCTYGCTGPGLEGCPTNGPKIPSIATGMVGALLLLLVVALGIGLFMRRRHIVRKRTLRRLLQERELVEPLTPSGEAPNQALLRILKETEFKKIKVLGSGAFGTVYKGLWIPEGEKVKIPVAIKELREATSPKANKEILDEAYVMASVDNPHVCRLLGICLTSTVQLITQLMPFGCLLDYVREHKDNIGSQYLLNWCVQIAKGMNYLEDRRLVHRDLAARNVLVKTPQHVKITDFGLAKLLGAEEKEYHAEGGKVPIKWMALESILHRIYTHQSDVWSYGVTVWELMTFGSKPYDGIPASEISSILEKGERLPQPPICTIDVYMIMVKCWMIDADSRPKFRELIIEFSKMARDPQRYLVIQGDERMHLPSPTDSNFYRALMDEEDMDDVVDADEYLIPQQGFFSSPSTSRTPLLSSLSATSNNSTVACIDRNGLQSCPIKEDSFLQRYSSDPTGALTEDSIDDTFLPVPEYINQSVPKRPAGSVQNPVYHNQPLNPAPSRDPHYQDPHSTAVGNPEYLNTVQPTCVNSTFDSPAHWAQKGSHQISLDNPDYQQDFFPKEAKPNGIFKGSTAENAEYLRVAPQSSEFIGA

Row | SMILES | IC50 [1, 12] [nM] | IC50 or EC50 (nM) Nuclei count [2, 13] | HTS % inhibition at 10 μM Nuclei count [2] [%] | inhibition at 10 µM [1] [%] | IC50 [1] [nM] | IC50 [8] [nM] | inhibition at 10 µM [2] [%] | IC50 [9] [nM] | IC50 [5] [nM] | IC50 [10] [nM] | IC50 [11] [nM] | IC50 [7] [nM] | also measured
1 | CO[C@H]1/C=C\C=C(/C)C(=O)NC2=CC(=O)C(NCCN(C)C)=C(C[C@@H](C)C[C@H](OC)[C@H](O)[C@@H](C)/C=C(\C)[C@@H]1OC(N)=O)C2=O [17-DMAG, 17-dimethylaminoethylamino-17-demethoxy-geldanamycin] | 29 ± 3 | N.E. | 33 |  |  |  |  |  |  |  |  |  | 
2 | CC(C)[C@H](CO)Nc1nc(Nc2cc(N)cc(Cl)c2)c2ncn(C(C)C)c2n1 [Aminopurvalanol A, aminopurvalanol A] | 910 ± 400 | N.E.^* | 40 |  |  |  |  |  |  |  |  |  | 
3 | CCN(CC)CC1CCN(c2ncc3ncnc(Nc4ccc(F)c(Cl)c4)c3n2)CC1.Cl.Cl [BIBU 1361] | 38 ± 7 | N.E. | 3 |  |  |  |  |  |  |  |  |  | IC50 [3]: 3 nM
4 | C[C@H]1C[C@H]2[C@@H]3CCC4=CC(=O)C=C[C@]4(C)[C@@]3(Cl)[C@@H](O)C[C@]2(C)[C@@]1(O)C(=O)CO [Beclomethasone, beclomethasone] |  |  | 16 |  |  |  |  |  |  |  |  |  | EC50 ([1]; activators of granule formation, dose response up to 10 μM, ±standard deviation): 42 ± 7 nM; IC50 or EC50 (nM) Nuclei count [2, 14]: N.E.; Luminescence ADP kinase assay IC50 ABL [4]: no inhibitory effects; Luminescence ADP kinase assay IC50 SRC [5]: no inhibitory effects; Luminescence ADP kinase assay IC50 EGFR [6]: no inhibitory effects; Luminescence ADP kinase assay IC50 VEGFR1 [7]: no inhibitory effects
5 | CCc1cc(-c2n[nH]c(C)c2-c2ccc3c(c2)OCCO3)c(O)cc1O [CCT 018159] |  |  |  |  |  |  |  |  |  |  |  |  | Inhibition of granule formation in dose response ([1]; at 5 and 10 μM): partial inhibition
6 | CC[C@@]1(O)C(=O)OCc2c1cc1n(c2=O)Cc2cc3ccccc3nc2-1 [Camptothecin, camptothecin] |  | N.E.^* |  | 81 | 720 ± 100 | 390 ± 50 | 40 | 290 ± 40 | > 10000 | 35 ± 50 | 17 ± 5 | > 10000 | IC50 [4]: > 10000 nM; IC50 [6]: > 10000 nM
7 | COC(=O)/C=C/c1cc(O)ccc1O [Erbstatin analog] |  | N.E.^* | 2 |  |  |  |  |  |  |  |  |  | IC50 or EC50 (nM) Granule count [1, 12]: N.E.; Alamar Blue viability assay IC50 H3255 [8]: only partial inhibition; Alamar Blue viability assay IC50 HCC4011 [9]: only partial inhibition; Luminescence ADP kinase assay IC50 ABL [4]: inactive; Luminescence ADP kinase assay IC50 SRC [5]: inactive; Alamar Blue viability assay IC50 A549 [10]: only partial inhibition; Alamar Blue viability assay IC50 H2030 [11]: only partial inhibition; Luminescence ADP kinase assay IC50 EGFR [6]: inactive; Luminescence ADP kinase assay IC50 VEGFR1 [7]: inactive
8 | C#Cc1cccc(Nc2ncnc3cc(OCCOC)c(OCCOC)cc23)c1 [Erlotinib, erlotinib] |  |  |  |  |  |  | 36 |  |  |  |  |  | IC50 or EC50 (nM) Nuclei count [2]: N.E.
9 | CC1(C)O[C@@H]2C[C@H]3[C@@H]4C[C@H](F)C5=CC(=O)CC[C@]5(C)[C@H]4[C@@H](O)C[C@]3(C)[C@]2(C(=O)CO)O1 [Flurandrenolide, flurandrenolide] |  |  |  | -165 |  | > 10000 | 7 | > 10000 | > 10000 | > 10000 | > 10000 | > 10000 | EC50 [1]: 23 ± 20 nM; Alamar Blue viability assay IC50 H3255 [8]: inactive; IC50 or EC50 (nM) Nuclei count [2, 14]: N.E.; Alamar Blue viability assay IC50 HCC4011 [9]: inactive; Luminescence ADP kinase assay IC50 SRC [5]: no inhibitory effects; Alamar Blue viability assay IC50 A549 [10]: inactive; Alamar Blue viability assay IC50 H2030 [11]: inactive; IC50 [6]: > 10000 nM; Luminescence ADP kinase assay IC50 EGFR [6]: no inhibitory effects; Luminescence ADP kinase assay IC50 VEGFR1 [7]: no inhibitory effects
10 | CN(C)c1cc2c(Nc3ccc4c(cnn4Cc4ccccc4)c3)ncnc2cn1 [GW 2974] | 1300 | N.E. | 18 |  |  |  |  |  |  |  |  |  | 
11 | CS(=O)(=O)CCNCc1nc(-c2ccc3ncnc(Nc4ccc(OCc5cccc(F)c5)c(Cl)c4)c3c2)cs1 [GW 583340] |  | N.E. |  | 94 | 2000 | 960 ± 60 | 26 | 2000 ± 200 | > 10000 | > 10000 | > 10000 | > 10000 | IC50 [4]: > 10000 nM; IC50 [6]: 1300 ± 100 nM
12 | CS(=O)(=O)CCNCc1ccc(-c2ccc3ncnc(Nc4ccc(OCc5cccc(F)c5)c(Cl)c4)c3c2)o1 [Lapatinib, lapatinib] |  |  |  | 91 | 590 ± 30 | 1200 ± 100 | 0 | 1500 ± 100 |  | > 10000 | > 10000 |  | IC50 or EC50 (nM) Nuclei count [2]: N.E.
13 | COc1cc2ncnc(Nc3cccc(Br)c3)c2cc1OC [PD 153035] |  |  |  | 97 | 91 ± 20 | 72 ± 12 | 12 | 48 ± 12 | > 10000 | > 10000 | > 10000 | > 10000 | IC50 or EC50 (nM) Nuclei count [2]: N.E.
14 | CO[C@@H]1[C@H](N(C)C(=O)c2ccccc2)C[C@H]2O[C@]1(C)n1c3ccccc3c3c4c(c5c6ccccc6n2c5c31)C(=O)NC4 [PKC 412] |  |  |  |  | 1300 |  |  |  |  |  |  |  | 
15 | COc1cc2ncnc(Nc3cccc(Cl)c3)c2cc1OC [Tyrphostin AG 1478] |  | N.E. |  | 94 | 65 ± 8 | 49 ± 1 | 12 | 33 ± 7 | 2600 ± 1300 | > 10000 | > 10000 | > 10000 | IC50 [4]: 2000 ± 600 nM
16 | COc1cc2ncnc(Nc3ccc(Cl)cc3F)c2cc1OC [ZM-306416] | 670 ± 200 | N.E. | 21 |  |  |  |  |  |  |  |  |  | Alamar Blue viability assay IC50 A549 [10]: inactive; Alamar Blue viability assay IC50 H2030 [11]: inactive
